Values of other authors as cited in US10537125B2, “Chlorine dioxide gas releasing package label insert for enhancing microbial safety of food” (priority 2016, dated 2020).

Assays:
Salmonella [1] = settings: constant ClO2 0.5 mg/L air for 15, 30, and 60 min
Salmonella [2] = settings: one-time application, treatment time 6 min to 120 min
[3] = at 20° C. and 760 mm Hg

[O][Cl+][O-] [ClO2, chlorine dioxide]
reduction of Salmonella on mung bean sprouts (Salmonella [1]): up to 4 log CFU Salmonella/g
Salmonella inactivation range reported by others (Salmonella [2]): 1.54-5.15 log
solubility in water [3]: about 70 g/L
